Measured values reported in patent US9926369B2, “Methods for treating hepatocellular cancer by administering an anti-Ang-2 antibody” (Regeneron Pharmaceuticals, Inc., priority 2009, dated 2018).

What was measured:
[1] = molecular target: Dimeric Monkey Ang-2FD-hFc; test: Cross-species SPR binding at 25° C. or 37° C., monkey Ang-2FD-hFc
Protocol: Additional binding experiments were conducted using selected anti-Ang-2 antibodies at two different temperatures to further assess cross-species affinity. Each selected antibody or control construct was captured at a flow rate of 40 μL/min for 1 minute on a goat anti-human kappa polyclonal antibody surface created through direct chemical coupling to a BIACORE™ chip to form a captured antibody surface. Human, monkey and mouse Ang-2FD-Fc at a concentration of 25 nM or 0.78 nM was injected over the captured antibody surface at a flowrate of 60 μL/min for 3 minutes, and antigen-antibody dissociation was monitored in real time for 20 minutes at either 25° C. or 37° C.

Monomeric hAng-2FD = molecular target: T1, Monomeric hAng-2FD (Homo sapiens, UniProt O15123); test: SPR binding to monomeric hAng-2FD (Table 8)
T1 sequence (O15123 282-496 limits assumed): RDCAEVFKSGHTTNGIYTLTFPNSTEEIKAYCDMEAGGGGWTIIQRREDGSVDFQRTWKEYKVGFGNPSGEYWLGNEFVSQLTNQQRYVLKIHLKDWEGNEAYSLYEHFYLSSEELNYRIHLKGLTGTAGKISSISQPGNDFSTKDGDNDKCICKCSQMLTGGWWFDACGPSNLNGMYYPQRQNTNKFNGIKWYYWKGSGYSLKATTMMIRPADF
Protocol: Equilibrium dissociation constants (KD values) for the binding of selected purified Ang-2 antibodies to dimeric fibrinogen-like domain of human (SEQ ID NO: 519), mouse (Mus musculus; SEQ ID NO: 520) and monkey (Macca fascicularis; SEQ ID NO: 521) Ang-2 (Ang-2FD) conjugated to human IgG1 (SEQ ID NO:528) were determined by surface kinetics using a real-time biosensor surface plasmon resonance assay. Antibody was captured on a goat anti-mouse IgG polyclonal antibody surface, a goat anti-human κ polyclonal antibody (Southern Biotech, Birmingham, Ala.) surface or a goat anti-human IgG polyclonal antibody (Jackson Immuno Research Lab, West Grove, Pa.) surface created through direct amine coupling to a BIACORE™ CM5 sensor chip to form a captured antibody surface. Varying concentrations (ranging from 50 nM to 6.25 nM) of protein were injected at 100 μl/min over captured antibody surface for 90 seconds. Antigen-antibody binding and dissociation were monitored in real time at room temperature. Kinetic analysis was performed to calculate KD and half-life of antigen/antibody complex dissociation.
In yet another experiment, KD values for selected purified antibodies that bind to wild-type human Ang-2 (hAng-2-WT; SEQ ID NO: 518) and the fibrinogen-like domain of human Ang2 (hAng-2FD) were determined (as described above).

[2] = test system: COLO 205 (Human Colorectal Adenocarcinoma Cell Line) tumors; test: COLO 205 mouse tumor model; assay type: in vivo, mice
Protocol: Briefly, 2×10^6COLO 205 cells in 100 μl of serum-free medium were injected subcutaneously into the flank of 6-8 week old male NCr nude mice (Taconic, Hudson, N.Y.). After tumor volumes reached an average of about 150 mm^3, mice were randomized into groups for treatment with antibody or Fc protein. Mice in each treatment group were administered an anti-Ang-2 antibody or Fc protein at a concentration of 4 mg/kg via intraperitoneal injection twice per week for approximately two weeks. Tumor volumes were measured twice per week over the course of the experiment and tumor weights were measured upon excision of tumors at the conclusion of the experiment. Averages (mean+/−standard deviation) of tumor weight and growth were calculated for each treatment group. “Avg. Tumor Growth” represents the average growth from the time of treatment initiation (when tumors were approximately 150 mm^3). Percent decrease of tumor weight and growth are calculated from comparison to Fc protein measurements.
A similar experiment was carried out to assess the effect of H1H685P, in particular, on COLO 205 tumor growth. Briefly, 2×10^6 COLO 205 cells in 100 μl of serum-free medium were implanted subcutaneously into the right hind flank of 9-11 week-old male SCID CB17 mice. When the tumors reached ˜125 mm^3, mice were randomized into 5 groups (n=7-8 mice/group) and treated twice per week with Fc protein (15 mg/kg), H1H685P (5 or 25 mg/kg) or Control II (5 or 25 mg/kg) for a period of 19 days. Tumor volumes were measured twice per week over the course of the experiment and tumor weights were measured upon excision of tumors at the end of the experiment. Averages of tumor weight and growth from the beginning of treatment were calculated for each group. Percent decrease of tumor weight and growth are calculated from comparison to the Fc control group.
To determine the effect of combining an anti-Ang-2 antibody with a VEGF inhibitor on the growth of COLO 205 xenografts, 2×10^6 cells were implanted subcutaneously into the right hind flank of 6-8 week-old female SCID mice. When the tumors reached an average volume of ˜350 mm^3, mice were randomized into 4 groups (n=6 mice/group) and treated with: human Fc protein (7.5 mg/kg), H1H685P (5 mg/kg), VEGF Trap (see U.S. Pat. No. 7,087,411) (2.5 mg/kg) or the combination of H1H685P+VEGF Trap. Mice were given a total of 3 doses over 10 days of treatment. Tumor volumes were measured twice per week over the course of the experiment. Averages of tumor growth from the start of treatment (mean+/−standard deviation) were calculated for each treatment group. Percent decrease of tumor growth was calculated from comparison to the Fc control group.
To test the effect of H1H685P in combination with a chemotherapeutic agent on tumor growth, 2.5×10^6 COLO 205 tumor cells were implanted subcutaneously into the right hind flank of 8-9 week-old male SCID mice. When the tumors reached an average volume of ˜150 mm^3 (day 17 after implantation), mice were randomized into 4 groups (n=5 mice/group) and treated as follows: the first group was treated sc with 15 mg/kg hFc and intraperitoneally (ip) with 5-FU vehicle; the second group was treated sc with 15 mg/kg of H1H685P; the third group was treated ip with 75 mg/kg of 5-FU; the fourth group was treated with the combination of 15 mg/kg H1H685P sc plus 75 mg/kg 5-FU ip. Mice received a total of three treatments, administered every 3-4 days. Tumor volumes were measured twice per week over the course of the experiment. Average (mean+/−standard deviation) tumor growth from the beginning of treatment until day 38 was calculated for each group. Percent decrease of tumor growth was calculated from comparison to the control group.

[3] = COLO 205, SCID CB17 mice, 5 mg/kg twice per week, 19 days
[4] = COLO 205, SCID CB17 mice, 25 mg/kg twice per week, 19 days
[5] = COLO 205, female SCID mice, H1H685P 5 mg/kg, VEGF Trap 2.5 mg/kg, 3 doses over 10 days
[6] = COLO 205, male SCID mice, H1H685P 15 mg/kg sc, 5-FU 75 mg/kg ip, three treatments, until day 38

Chain of Dimeric Monkey Ang-2FD-hFc (as listed by the source): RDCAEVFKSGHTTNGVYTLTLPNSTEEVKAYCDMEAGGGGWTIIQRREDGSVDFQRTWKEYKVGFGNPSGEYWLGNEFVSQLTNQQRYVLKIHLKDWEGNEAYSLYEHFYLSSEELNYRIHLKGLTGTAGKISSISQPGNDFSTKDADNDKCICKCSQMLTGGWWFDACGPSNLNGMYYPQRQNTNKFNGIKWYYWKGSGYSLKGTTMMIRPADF

Substance: H1H685P: human anti-Ang-2 antibody, HCVR/LCVR SEQ ID NOs 18/20; also referred to as mAb1 [Antibody H1H685P]
- Kd ([1]; 25° C.): 0.022 nM
- Kd ([1]; 37° C.): 0.0721 nM
- Kd (Monomeric hAng-2FD): 0.578 nM
- % Decrease in Tumor Growth [2, 3]: 45%
- % Decrease in Tumor Weight [2, 3]: 43%
- Avg Tumor Growth [2, 3]: 370 ± 114 mm^3
- Avg Tumor Weight [2, 3]: 0.458 ± 0.125 g
- % Decrease in Tumor Growth [2, 4]: 56%
- % Decrease in Tumor Weight [2, 4]: 46%
- Avg Tumor Growth [2, 4]: 295 ± 160 mm^3
- Avg Tumor Weight [2, 4]: 0.430 ± 0.139 g
- % Decrease in Tumor Growth [2, 5]: 80%
- Avg Tumor Growth [2, 5]: 74 ± 77 mm^3
- % Decrease in Tumor Growth [2, 6]: 29%
- Avg Tumor Growth [2, 6]: 405 ± 80 mm^3
- Anti-tumor activities in the COLO 205 mouse model (in words) ([2]; mouse, in vivo): substantial anti-tumor activities
